Literature values, collected in publication PMC3604136 (Nature chemical biology, 2013).

System: HIF-1 and HIF-2

Substance: acriflavine
- HIF isoform inhibition: inhibits both HIF-1 and HIF-2
